Read-outs that look alike come from different tables or passages of the source.
What was measured:
[1] = tested on: HEK-293 cells co-transfected with SERCA2a and SAE1 mutants (Q312A and V315F); experiment: N106-induced SERCA2a SUMOylation in HEK-293 cells overexpressing SAE1 mutants; type: cell-based
Protocol: Supplementary Figure 4. Effects of overexpressing SAE1 mutants on N106-induced SERCA2a SUMOylation. (a) HEK-293 cells were co-transfected with SERCA2a and SAE1 wild type or SAE1 mutants (Q312A and V315F) for 24 hours. And then the transfecting HEK-293 cells were incubated with different concentration of N106 for 24 hours. The level of SERCA2a SUMOylation was determined by immunoprecipitation and following with Western blotting. (b) The levels of SAE1 overexpression were determined by Western blotting with anti- […]
(1 picture or pasted object on this page, not shown here)

[2] = Single-dose pharmacokinetic profile; type: in vivo, mice; settings: male, mouse, plasma; for Cmax / half-life: 10 mg/kg
Protocol: The male mice were received with a small molecule N106 at 10 mg kg^−1 intravenously and 10 mg kg^−1 orally (PO). The bloods were corrected at 30 min, 1, 2 and 4 h after administration intravenously and at 30 min, 1, 2 and 4 h after treatment for oral administration studies. Plasma samples from these studies were extracted by plasma separator tube containing lithium heparin (BD Microcontainer, NJ, USA). Plasma concentrations of N106 were determined by HPLC analysis and pharmacokinetic parameters. Three mice for each time point were used.
Supplementary Figure 13. Pharmacokinetic profile of N106 following administration to mice. The murine PK profile of single dose of N106 (10 mg.kg-1) was determined following intravenously (IV) and oral (PO) administration and analysis of plasma samples was performed by high performance liquid chromatography. Data represents mean value of N106 plasma concentrations in mice. n = 3 mice per each time point. Cmax, maximum concentration; T ½, half time; Tmax, time to peak concentration.

[3] = tested on: Serca2 KO mice; experiment: Invasive P–V loop haemodynamics in cardiac-specific Serca2a knockout mice; type: in vivo
Protocol: Figure 5 Lack of effects of N106 on haemodynamic parameters in cardiac-specific Serca2a knockout mice. Systolic and diastolic function was determined in conditional cardiac-specific Serca2a knockout mice by pressure–volume analysis. […] There was no significant change in haemodynamic parameters with N106 treatment after a single dose (1 mg kg^−1) (a-f) and different doses (0.1, 1 and 10 mg kg^−1) (g,h). Data are represented as mean±s.e.m. n=3∼8 mice per each condition. NS, not significant; Student’s t-test.
One day after echocardiography, we performed in-vivo haemodynamics. The mice were anaesthetized with an intraperitoneal injection mixture of urethane (1 mg g^−1), etomidate (10 μg g^−1) and morphine (1 μg g^−1), and were then intubated via a tracheotomy and mechanically ventilated at 7 μl g^−1 tidal volume and 120 respirations per minute. A small incision was made in the apex and a French Millar cathether connected a high-fidelity pressure transducer (Scisense, London, ON, Canada) inserted into the LV. Haemodynamic recordings were performed after 5∼10 min of stable HR. The rate of pressure rise (+dP/dt) and maximal pressure, the time constant of isovolumic relaxation and HR were recorded and analysed. To determine the relative effects of the admittance and conductance techniques to contractility change induced by N106 compound infusion, whole haemodynamic function was recorded at both baseline and after administration of N106 compound through the external jugular vein. N106 compound was solubilized in 10% DMSO (Sigma-Aldrich), 10% Tween-80 (Sigma-Aldrich) and saline for in-vivo experiments. N106 or vehicle solutions were continuously infused through the external jugular vein at a rate of 50 μl min^−1 for 2 min in each dose. Whole haemodynamic functions of increasing dose of N106 of each mouse were recorded for ∼4 h. Each dose of N106 solution was infused after back to baseline of heart function.

[4] = Serca2a knockout mice, 1 mg kg^−1

Cmax ([2]; iv, mice, 10 mg kg^−1 intravenous): 2240 nM | half-life ([2]; iv, mice, 10 mg kg^−1 intravenous, read-out: half-life): 65.4 min | bioavailability ([2]; oral, 10 mg kg^−1, mice, 10 mg kg^−1 PO vs IV, read-out: oral bioavailability (F%)): 56% | Cmax ([2]; po, mice, 10 mg kg^−1 oral): 457 nM | half-life ([2]; po, mice, 10 mg kg^−1 oral, read-out: terminal elimination half-life (t1/2)): 19 min | Tmax ([2]; mice, 10 mg kg^−1 oral): 30 min
SMILES: COc1ccc(-c2nnc(Nc3nc4c(OC)cccc4s3)o2)cc1 [Compound N106, N-(4-methoxybenzo[d]thiazol-2-yl)-5-(4-methoxyphenyl)-1,3,4-oxadiazol-2-amine]
N106-induced increase in SUMOylation of SERCA2a in mutant SAE1-overexpressing cells versus overexpressed WT ([1]; 24 h): weaker | Dose-dependent increases in SERCA2a SUMOylation in cells overexpressing mutants ([1]; different concentration of N106, 24 h): not observed | improvements in haemodynamic parameters ([3]; Serca2 KO, 1 mg kg^−1 and 0.1, 1 and 10 mg kg^−1): did not induce any improvements | +dP/dtmax [3, 4]: 2917.8±412.9 mm Hg s^−1 | HR [3, 4]: 311.2±16.1 bpm | Pmax [3, 4]: 75.0±4.4 mm Hg | τ [3, 4]: 11.2 ± 1.0 ms | ESPVR slope ([3]; Serca2a knockout mice, 1 mg kg^−1 via jugular vein): 3.9±0.7 mm Hg μl^−1

From article PMC4467461, “Small-molecule activation of SERCA2a SUMOylation for the treatment of heart failure” (Nature Communications, 2015)
